{
  "source": "paper PMC5531637",
  "about": "“The effect of mangiferin on skin: Penetration, permeation and inhibition of ECM enzymes” (PLoS ONE, 2017)",
  "key": {"[1]": {"molecular_target": "porcine pancreatic elastase (Sus scrofa, UniProt P00772)", "sequence (P00772 27-266)": "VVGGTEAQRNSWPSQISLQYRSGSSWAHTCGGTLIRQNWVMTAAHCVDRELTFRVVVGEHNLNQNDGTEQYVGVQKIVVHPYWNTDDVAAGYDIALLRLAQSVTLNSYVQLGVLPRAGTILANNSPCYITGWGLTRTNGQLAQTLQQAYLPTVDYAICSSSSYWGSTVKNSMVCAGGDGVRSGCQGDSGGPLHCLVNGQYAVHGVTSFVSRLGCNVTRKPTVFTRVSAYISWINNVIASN", "test": "Spectrophotometric elastase assay with SANA as substrate", "type": "biochemical", "method": "A spectrophotometric elastase assay was performed as previously described [25], with N-Succ-(-Ala)3-p-nitroanilide (SANA) as the substrate. […] The addition of SANA started the reaction. Changes in product formation: p-nitroaniline was recorded every 20 seconds for 20 minutes in the absorbance λ = 410 nm with the use of the Epoch (BioTek System) spectrophotometer in 96-well plates (BIOCOM SYSTEMS). The oleanolic acid was used as a control [26]. Kinetic parameters Vo, Km and Vmax were calculated according to Michaelis-Menten and Lineweaver-Burk plots and analyzed in the GraphPad prism program and Excel.\nAs stated by the data supplier: 1U elastase hydrolyses 1 μM SANA/min at pH 8 and 25°C. The molar absorption coefficient of p-nitroaniline is 9800 M^–1 cm^–1."}, "[2]": {"parameters": "method as in ref 18 = [18]; 18 Acosta J , Sevilla I , Salomón S , Nuevas L , Romero A , Amaro D . Determination of mangiferin solubility in solvents used in the biopharmaceutical industry . Pharm Pharmacogn Res . 2016; 4 ( 2 ):", "settings": "cited from earlier work"}, "[3]": {"tested_on": "human cervix adenocarcinoma cell line (HeLa)", "parameters": "method as in PMID 24633329", "settings": "cited from earlier work"}, "rats": {"tested_on": "rats", "settings": "2 g/kg; cited from earlier work"}, "[4]": {"parameters": "method as in ref 21 = [21]; 21 Nuñez-Selles AJ . Antioxidant therapy: myth or reality? J Braz Chem Soc . 2005; 16 : 699 – 710 .", "settings": "cited from earlier work"}, "[5]": {"tested_on": "human acute myeloid leukemia cell line HL-60", "parameters": "method as in PMID 21547680", "settings": "cited from earlier work"}, "[6]": {"type": "in vitro ADME", "settings": "human, 25 μg/ml", "procedure": "The studies were performed using human cadaver full skin (thickness of 0.75 mm) obtained from the region of the thorax of 40–60 years old donors. The study was reviewed and approved by the Independent Bioethics Commission for Research of the Medical University of Gdansk (number NKBBN/120-41/2014). Before the experiment, the skin was stored frozen at -20 °C. The preparations were applied as an infinite dose (0.5 ml mangiferin solution at concentration of 25 μg/ml) on the surface of the skin placed in the flow-through Teflon® diffusion chamber (Crown Glass, USA), and left for 24 h. The diffusion area of the skin was 0.65 cm^2. The donor compartment of the chamber remained occluded, and the system was maintained at the temperature 37°C ± 0.5°C. Saline solution, 20 ml, preserved with 0.005% sodium azide (Fluka, Buchs, Switzerland) was recirculated beneath the skin with a constant rate of 10 ml/h. Acceptor fluid ensured the sink condition. After the penetrants were removed from the skin, the stratum corneum was separated by tape-stripping method, using 30 fragments of an adhesive tape (3M Medica Pharma, St. Paul, MN, USA). The following parameters were employed: pressure about 1 kg/cm^2 (applied by stamp), 2 s duration of pressure, and a rapid removal rate at an angle of 45^o. The skin layers were isolated by the heat separation technique. […]"}, "[7]": {"molecular_target": "Collagenase from Clostridium histolyticum", "test": "Spectrophotometric collagenase assay with FALGPA as substrate", "type": "biochemical", "procedure": "A spectrophotometric collagenase assay was performed as previously described, with N-[3- (2-Furyl) acryloyl]- Leu- Gly- Pro-Ala (FALGPA) as the substrate. […] The reaction mixtures were preincubated with mangiferin solutions for 15 minutes at room temperature. The addition of FALGPA started the reaction. Changes in product formation were recorded every 20 seconds for 20 minutes in the absorbance λ = 335 nm with the use of the Epoch (BioTek System) spectrophotometer in 96-well plates (BIOCOM SYSTEMS). Oleanolic acid was used as a control. The kinetic parameters Vo, Km and Vmax were calculated according to Michaelis-Menten and Lineweaver-Burk plots and analyzed in the GraphPad prism program and Excel.\nAs stated by the data supplier: 1U of collagenase hydrolyses […] FALGPA/min at pH 7.5 and 25°C, in the presence of calcium ions."}, "mice": {"tested_on": "mice", "settings": "2 g/kg; cited from earlier work"}},
  "data": [
    {"smiles": "O=c1c2cc(O)c(O)cc2oc2cc(O)c([C@@H]3O[C@H](CO)[C@@H](O)[C@H](O)[C@H]3O)c(O)c12", "note": "[mangiferin, 2-C-β-D-glucopyranosyl-1,3,6,7-tetrahydroxyxanthone]", "values": [
      {"measurement": "type of elastase inhibition", "setting": "[1]; Lineweaver-Burk plots, 0, 59, 118 and 177 μM", "result": "noncompetitive"},
      {"measurement": "IC50", "setting": "[1]; SANA 0.8 mM, pH 8, 15 min preincubation, read-out: concentration leading to a 50% loss of elastase activity (IC50)", "result": "140 ± 9.34", "unit": "µM"},
      {"measurement": "concentrations that inactivated elastase almost completely", "setting": "[1]; SANA substrate", "result": "above 473 μM"},
      {"measurement": "reversibility of elastase inhibition", "setting": "[1]; activity vs enzyme concentration plots, 0, 59, 118 and 177 μM", "result": "reversible"},
      {"measurement": "potency on elastase relative to oleanolic acid (fold lower)", "setting": "[1]; vs reference oleanolic acid", "result": 4.2, "unit": "fold"},
      {"measurement": "solubility in ethanol", "setting": "[2]; ethanol", "result": "slightly soluble"},
      {"measurement": "solubility in nonpolar solvents", "setting": "[2]; some nonpolar solvents (e.g. n-hexane, diethyl ether)", "result": "practically insoluble"},
      {"measurement": "solubility in water", "setting": "[2]; water", "result": "sparingly soluble"},
      {"measurement": "effect on apoptotic effects of hesperidin in HeLa cells", "setting": "[3]", "result": "enhanced apoptotic effects of hesperidin"},
      {"measurement": "dermal acute toxicity", "setting": "rats", "result": "did not show toxic effects"},
      {"measurement": "log P", "setting": "[4]", "result": 2.73},
      {"measurement": "apoptosis in HL-60 cells", "setting": "[5]", "result": "induce apoptosis"},
      {"measurement": "amount permeated through the skin from ethanol solution relative to water solution", "setting": "[6]", "result": "about 2 fold"},
      {"measurement": "concentration in the acceptor fluid after 24 hours relative to after 2 hours", "setting": "[6]", "result": "about 2 fold"},
      {"measurement": "IC50", "setting": "[7]; FALGPA 0.8 mM, pH 7.5, 15 min preincubation, read-out: concentration leading to a 50% loss of collagenase activity (IC50)", "result": "254 ± 7.56", "unit": "µM"},
      {"measurement": "concentrations that inactivated collagenase almost completely", "setting": "[7]; FALGPA substrate", "result": "above 500 μM"},
      {"measurement": "type of collagenase inhibition", "setting": "[7]; Lineweaver-Burk plots", "result": "noncompetitive"},
      {"measurement": "reversibility of collagenase inhibition", "setting": "[7]; activity vs enzyme concentration plots", "result": "reversible"},
      {"measurement": "potency on collagenase relative to oleanolic acid (fold lower)", "setting": "[7]; vs reference oleanolic acid", "result": 4.9, "unit": "fold"},
      {"measurement": "dermal acute toxicity", "setting": "mice", "result": "did not show toxic effects"}
    ]}
  ]
}
